The source of these data is US7067158B2, “Preparation for the relief of disease” (AKL Technologies Limited, priority 2001, dated 2006).

Data set [1] is described as follows: Treatment of laminitis in horses. The format is in vivo. Particulars: horse L: on Bute for two months. The method, then: (§1) The loading dose is from three to ten days according to individual perceived clinical need. After the loading dose, the maintenance dose follows for a minimum (normally) of 30 days continuing as needed. The doses are scaled according to individual size/body weight. The dose was added as a powder in the animals' feed.
(§2) JMJ, FRA and D-Tox are available from Nutrilabs of Penrhos, Raglan, Monmouthshire. They are used to make the following Example compositions according to the invention, which were used in Examples A to AA below. The following gives a daily dose for a 450 kg horse. With any of the following Example Compositions during ANY acute phase, a loading dose of 3 times the daily dose may be used to assist a rapid return to ‘well being’.

The subject of the next data set is platelets. Briefly: Born aggregometry: ADP-induced platelet aggregation in platelet rich plasma (PRP). The format is cell-based, human. To be noted: ADP 4×10^−6 M. Here is the method: Extracts of components were prepared by stirring macerated samples overnight in methanol. The mixtures were centrifuged, the supernatants drawn off and dried to remove all traces of the extracting solvent. Resulting solids were re-suspended in normal saline (0.9% w/v NaCl) at saturated concentrations.
Extracts 2, 5 and 8 were reconstituted in 0.9% saline at saturated concentrations.
Citrated whole blood, from healthy volunteers, was spun at 900 rpm for 20 minutes to obtain platelet rich plasma (PRP). Born aggregometry was then carried out within 1 hour of blood being taken. Extracts 2, 5, and 8 were added to 450 μl PRP either singly (6 μl), or in combination with one other extract (3 μl each), or all the extracts in combination (2 μl each). PRP was then stimulated with ADP (Sigma) 4×10^−6 M. 6 μl of saline was added to PRP for the control. Aggregation was measured in a PAP4C aggregometer (BioData Corp. Horsham USA) over 10 minutes.
The dose of agonist was chosen to give slightly sub-optimal aggregation thus showing the maximum effect of any inhibition. Doses of extracts were chosen to show the effect on platelets when used alone and any added and/or synergistic effect of using combinations. All data is recorded as the maximum aggregation.

Data set [2] can be described thus: Treatment of COPD in horses. The format is in vivo. Particulars: horse K: COPD. Here is the method: as §1, §2
Data set [3] has as its system Platelet Activating Factor (PAF). Particulars: cited from earlier work.

Turning to `CCCCC1C(=O)N(c2ccccc2)N(c2ccccc2)C1=O` [Bute], the adverse reaction result in data set [1] was “ulcers around the mouth and sores on the muzzle”.
For the compound `COc1cc(C(C)=O)ccc1O` [Extract 2, Apocynin], in the data set with platelets, the “effect on platelet aggregation in response to ADP (in words)” value is listed as “reduced platelet aggregation in response to ADP”.
Turning to `CC(C)(C)NCC(O)c1cc(Cl)c(N)c(Cl)c1` (stereo not shown) [Ventipulmin, clenbuterol], in data set [2], the “clinical outcome (owner report)” value is “had no effect”.
Turning to `CC1C(=O)OC2C(O)C34C5CC(C(C)(C)C)C36C(OC(=O)C6O)OC4(C(=O)O5)C12O` (stereo not shown) [ginkgolide B], in data set [3], the PAF inhibiting activity result was “potent”.
